# Reference: BindingDB's records for doi:10.1021/jm00003a019 (Research Triangle Institute, 1995)
# Assay: Binding affinity at Sigma receptor type 1, displacement of [3H](+)-pentazocine from guinea pig brain membranes
row,Structure (SMILES),Ki
1,"C[C@@H]1[C@@H]2Cc3ccc(O)cc3[C@@]1(C)CCN2Cc1ccc(C#N)cc1 [4-((2S,6S,11S)-8-Hydroxy-6,11-dimethyl-1,2,5,6-tetrahydro-4H-2,6-methano-benzo[d]azocin-3-ylmethyl)-benzonitrile]",1.53 nM
2,"C[C@@H]1[C@@H]2Cc3ccc(O)cc3[C@@]1(C)CCN2Cc1ccccc1F [(2S,6S,11S)-3-(2-Fluoro-benzyl)-6,11-dimethyl-1,2,3,4,5,6-hexahydro-2,6-methano-benzo[d]azocin-8-ol]",1.45 nM
3,"C[C@@H]1[C@@H]2Cc3ccc(O)cc3[C@@]1(C)CCN2Cc1ccccc1I [(2S,6S,11S)-3-(2-Iodo-benzyl)-6,11-dimethyl-1,2,3,4,5,6-hexahydro-2,6-methano-benzo[d]azocin-8-ol]",930 nM
4,"C[C@@H]1[C@@H]2Cc3ccc(O)cc3[C@@]1(C)CCN2Cc1cccc(I)c1 [(2S,6S,11S)-3-(3-Iodo-benzyl)-6,11-dimethyl-1,2,3,4,5,6-hexahydro-2,6-methano-benzo[d]azocin-8-ol]",27.2 nM
5,"C[C@@H]1[C@@H]2Cc3ccc(O)cc3[C@@]1(C)CCN2Cc1ccc(N)cc1 [(2S,6S,11S)-3-(4-Amino-benzyl)-6,11-dimethyl-1,2,3,4,5,6-hexahydro-2,6-methano-benzo[d]azocin-8-ol]",16.8 nM
6,"C[C@@H]1[C@@H]2Cc3ccc(O)cc3[C@@]1(C)CCN2Cc1ccc(Br)cc1 [(2S,6S,11S)-3-(4-Bromo-benzyl)-6,11-dimethyl-1,2,3,4,5,6-hexahydro-2,6-methano-benzo[d]azocin-8-ol]",3.11 nM
7,"C[C@@H]1[C@@H]2Cc3ccc(O)cc3[C@@]1(C)CCN2Cc1ccc(Cl)cc1 [(2S,6S,11S)-3-(4-Chloro-benzyl)-6,11-dimethyl-1,2,3,4,5,6-hexahydro-2,6-methano-benzo[d]azocin-8-ol]",2.37 nM
8,"C[C@@H]1[C@@H]2Cc3ccc(O)cc3[C@@]1(C)CCN2Cc1ccc(N(C)C)cc1 [(2S,6S,11S)-3-(4-Dimethylamino-benzyl)-6,11-dimethyl-1,2,3,4,5,6-hexahydro-2,6-methano-benzo[d]azocin-8-ol]",102 nM
9,"C[C@@H]1[C@@H]2Cc3ccc(O)cc3[C@@]1(C)CCN2Cc1ccc(F)cc1 [(2S,6S,11S)-3-(4-Fluoro-benzyl)-6,11-dimethyl-1,2,3,4,5,6-hexahydro-2,6-methano-benzo[d]azocin-8-ol]",0.97 nM
10,"C[C@@H]1[C@@H]2Cc3ccc(O)cc3[C@@]1(C)CCN2Cc1ccc(I)c([N+](=O)[O-])c1 [(2S,6S,11S)-3-(4-Iodo-3-nitro-benzyl)-6,11-dimethyl-1,2,3,4,5,6-hexahydro-2,6-methano-benzo[d]azocin-8-ol]",386 nM
11,"C[C@@H]1[C@@H]2Cc3ccc(O)cc3[C@@]1(C)CCN2Cc1ccc(I)cc1 [(2S,6S,11S)-3-(4-Iodo-benzyl)-6,11-dimethyl-1,2,3,4,5,6-hexahydro-2,6-methano-benzo[d]azocin-8-ol]",16.5 nM
12,"COc1ccc(CN2CC[C@]3(C)c4cc(O)ccc4C[C@H]2[C@H]3C)cc1 [(2S,6S,11S)-3-(4-Methoxy-benzyl)-6,11-dimethyl-1,2,3,4,5,6-hexahydro-2,6-methano-benzo[d]azocin-8-ol]",2.89 nM
13,"C[C@@H]1[C@@H]2Cc3ccc(O)cc3[C@@]1(C)CCN2Cc1ccc(C(C)(C)C)cc1 [(2S,6S,11S)-3-(4-tert-Butyl-benzyl)-6,11-dimethyl-1,2,3,4,5,6-hexahydro-2,6-methano-benzo[d]azocin-8-ol]",1070 nM
14,"Cc1ccccc1CN1CC[C@]2(C)c3cc(O)ccc3C[C@H]1[C@H]2C [(2S,6S,11S)-6,11-Dimethyl-3-(2-methyl-benzyl)-1,2,3,4,5,6-hexahydro-2,6-methano-benzo[d]azocin-8-ol]",12.8 nM
15,"Cc1ccc(CN2CC[C@]3(C)c4cc(O)ccc4C[C@H]2[C@H]3C)cc1 [(2S,6S,11S)-6,11-Dimethyl-3-(4-methyl-benzyl)-1,2,3,4,5,6-hexahydro-2,6-methano-benzo[d]azocin-8-ol]",2.08 nM
16,"C[C@@H]1[C@@H]2Cc3ccc(O)cc3[C@@]1(C)CCN2Cc1ccc([N+](=O)[O-])cc1 [(2S,6S,11S)-6,11-Dimethyl-3-(4-nitro-benzyl)-1,2,3,4,5,6-hexahydro-2,6-methano-benzo[d]azocin-8-ol]",2.19 nM
17,"C[C@@H]1[C@@H]2Cc3ccc(O)cc3[C@@]1(C)CCN2Cc1ccc(C(F)(F)F)cc1 [(2S,6S,11S)-6,11-Dimethyl-3-(4-trifluoromethyl-benzyl)-1,2,3,4,5,6-hexahydro-2,6-methano-benzo[d]azocin-8-ol]",20.5 nM
18,"CC(=O)Nc1ccc(CN2CC[C@]3(C)c4cc(O)ccc4C[C@H]2[C@H]3C)cc1 [N-[4-((2S,6S,11S)-8-Hydroxy-6,11-dimethyl-1,2,5,6-tetrahydro-4H-2,6-methano-benzo[d]azocin-3-ylmethyl)-phenyl]-acetamide]",47 nM
